Test system: plasma SPM concentrations in mice
Test: MTX given intravenously to mice, plasma SPM by LC-MS/MS lipid mediator profiling
Assay type: in vivo
Settings: blood after 1 hour; for plasma 4S,14S-diHDHA concentration in mice, Mean ± SEM / plasma 5S,15S-diHETE concentration in mice, Mean ± SEM / plasma 7S,14S-diHDHA concentration in mice, Mean ± SEM / plasma 7S,14S-diHDPA concentration in mice, Mean ± SEM / plasma 10S,17S-diHDPA concentration in mice, Mean ± SEM / plasma 13,14-dehydro-15-oxo-LXA4 concentration in mice, Mean ± SEM / plasma 14-oxo-MaR1 concentration in mice, Mean ± SEM / plasma 15-oxo-LXA4 concentration in mice, Mean ± SEM / plasma 15R-LXA4 concentration in mice, Mean ± SEM / plasma 15R-LXB4 concentration in mice, Mean ± SEM / plasma 17R-PD1 concentration in mice, Mean ± SEM / plasma 17R-RvD1 concentration in mice, Mean ± SEM / plasma 17R-RvD3 concentration in mice, Mean ± SEM / plasma 22-OH-MaR1 concentration in mice, Mean ± SEM / plasma 22-OH-PD1 concentration in mice, Mean ± SEM / plasma LXA4 concentration in mice, Mean ± SEM / plasma LXB4 concentration in mice, Mean ± SEM / plasma MaR1 concentration in mice, Mean ± SEM / plasma MaR1n-3 DPA concentration in mice, Mean ± SEM / plasma MaR2 concentration in mice, Mean ± SEM / plasma PD1 concentration in mice, Mean ± SEM / plasma PD1n-3 DPA concentration in mice, Mean ± SEM / plasma PDx concentration in mice, Mean ± SEM / plasma RvD1 concentration in mice, Mean ± SEM / plasma RvD1n-3 DPA concentration in mice, Mean ± SEM / plasma RvD2 concentration in mice, Mean ± SEM / plasma RvD2n-3 DPA concentration in mice, Mean ± SEM / plasma RvD3 concentration in mice, Mean ± SEM / plasma RvD4 concentration in mice, Mean ± SEM / plasma RvD5 concentration in mice, Mean ± SEM / plasma RvD5n-3 DPA concentration in mice, Mean ± SEM / plasma RvD6 concentration in mice, Mean ± SEM / plasma RvE1 concentration in mice, Mean ± SEM / plasma RvE2 concentration in mice, Mean ± SEM / plasma RvE3 concentration in mice, Mean ± SEM / plasma RvT1 concentration in mice, Mean ± SEM / plasma RvT2 concentration in mice, Mean ± SEM / plasma RvT3 concentration in mice, Mean ± SEM / plasma RvT4 concentration in mice, Mean ± SEM: intravenous injection
Experimental: Plasma was obtained by centrifugation and peripheral blood SPM concentrations were determined using LC-MS/MS based lipid mediator profiling. (A) OPLS-DA analysis of plasma SPM concentrations. Colored spherical areas display 95% confidence region of respective incubations. […] Results for A, B are representative of n=6 donors from three distinct experiments. […] Blood was then collected after 1 hour and SPM concentrations were determined using LC-MS/MS based lipid mediator profiling (D) oPLS-DA analysis of plasma SPM concentrations. Colored areas display 95% confidence region of respective incubations. […] Results are representative of n=4 mice per group and experiments were conducted on two distinct occasions.
Plasma was obtained from peripheral blood of healthy volunteers, patients and mouse following centrifugation at 1500×g for 10 min at room temperature. Paws were collected and immediately transferred to liquid nitrogen prior to homogenization in 1 ml ice cold MeOH and homogenized using a glass dounce. All samples for LC-MS/MS-based profiling were extracted using solid-phase extraction columns as in Walker, M. E., Souza, P. R., Colas, R. A. & Dalli, J. “13-Series resolvins mediate the leukocyte-platelet actions of atorvastatin and pravastatin in inflammatory arthritis.” FASEB J 31, 3636-3648 (2017), the contents of which are incorporated herein by reference. Prior to sample extraction, deuterated internal standards, representing each region in the chromatographic analysis (500 pg each) were added to facilitate quantification. Samples were kept at −20° C. for a minimum of 45 min to allow protein precipitation. Supernatants were subjected to solid phase extraction, methyl formate fraction collected, brought to dryness and suspended in phase (methanol/water, 1:1, vol/vol) for injection on a Shimadzu LC-20AD HPLC and a Shimadzu SIL-20AC autoinjector, paired with a QTrap 5500 or QTrap 6500 plus (Sciex). An Agilent Poroshell 120 EC-C18 column (100 mm×4.6 mm×2.7 μm) was kept at 50° C. and mediators eluted using a mobile phase consisting of methanol/water/acetic acid of 20:80:0.01 (vol/vol/vol) that was ramped to 50:50:0.01 (vol/vol/vol) over 0.5 min and then to 80:20:0.01 (vol/vol/vol) from 2 min to 11 min, maintained till 14.5 min and then rapidly ramped to 98:2:0.01 (vol/vol/vol) for the next 0.1 min. This was subsequently maintained at 98:2:0.01 (vol/vol/vol) for 5.4 min, and the flow rate was maintained at 0.5 ml/min. QTrap 5500 or QTrap 6500 plus were operated using a multiple reaction monitoring method as in Walker, M. E., Souza, P. R., Colas, R. A. & Dalli, J. “13-Series resolvins mediate the leukocyte-platelet actions of atorvastatin and pravastatin in inflammatory arthritis.” FASEB J 31, 3636-3648 (2017), the contents of which are incorporated herein by reference. Each lipid mediator was identified using established criteria including matching retention time to synthetic or authentic standards and at least 6 diagnostic ions (Walker, M. E., Souza, P. R., Colas, R. A. & Dalli, J. “13-Series resolvins mediate the leukocyte-platelet actions of atorvastatin and pravastatin in inflammatory arthritis.” FASEB J 31, 3636-3648 (2017), the contents of which are incorporated herein by reference).

[1] = mice, MTX 1 μg/mouse or 22 μg/mouse intravenous

## CN(Cc1cnc2nc(N)nc(N)c2n1)c1ccc(C(=O)N[C@@H](CCC(=O)O)C(=O)O)cc1 [MTX, Methotrexate]
1 μg/mouse
  plasma 4S,14S-diHDHA concentration in mice, Mean ± SEM: 18.38 ± 6.59
  plasma 5S,15S-diHETE concentration in mice, Mean ± SEM: 14.61 ± 6.53
  plasma 7S,14S-diHDHA concentration in mice, Mean ± SEM: 0.00 ± 0.00
  plasma 7S,14S-diHDPA concentration in mice, Mean ± SEM: 0.00 ± 0.00
  plasma 10S,17S-diHDPA concentration in mice, Mean ± SEM: 2.41 ± 0.97
  plasma 13,14-dehydro-15-oxo-LXA4 concentration in mice, Mean ± SEM: 0.65 ± 0.21
  plasma 14-oxo-MaR1 concentration in mice, Mean ± SEM: 3.44 ± 0.37
  plasma 15-oxo-LXA4 concentration in mice, Mean ± SEM: 3.53 ± 1.62
  plasma 15R-LXA4 concentration in mice, Mean ± SEM: 6.41 ± 0.78
  plasma 15R-LXB4 concentration in mice, Mean ± SEM: 3.90 ± 1.80
  plasma 17R-PD1 concentration in mice, Mean ± SEM: 10.50 ± 4.91
  plasma 17R-RvD1 concentration in mice, Mean ± SEM: 0.00 ± 0.00
  plasma 17R-RvD3 concentration in mice, Mean ± SEM: 4.26 ± 0.87
  plasma 22-OH-MaR1 concentration in mice, Mean ± SEM: 0.00 ± 0.00
  plasma 22-OH-PD1 concentration in mice, Mean ± SEM: 0.00 ± 0.00
  plasma LXA4 concentration in mice, Mean ± SEM: 1.06 ± 0.20
  plasma LXB4 concentration in mice, Mean ± SEM: 16.93 ± 1.92
  plasma MaR1 concentration in mice, Mean ± SEM: 71.74 ± 20.71
  plasma MaR1n-3 DPA concentration in mice, Mean ± SEM: 0.83 ± 0.34
  plasma MaR2 concentration in mice, Mean ± SEM: 2.05 ± 0.39
  plasma PD1 concentration in mice, Mean ± SEM: 10.13 ± 4.31
  plasma PD1n-3 DPA concentration in mice, Mean ± SEM: 0.00 ± 0.00
  plasma PDx concentration in mice, Mean ± SEM: 17.23 ± 1.32
  plasma RvD1 concentration in mice, Mean ± SEM: 1.39 ± 0.59
  plasma RvD1n-3 DPA concentration in mice, Mean ± SEM: 0.67 ± 0.35
  plasma RvD2 concentration in mice, Mean ± SEM: 2.60 ± 1.05
  plasma RvD2n-3 DPA concentration in mice, Mean ± SEM: 4.54 ± 1.98
  plasma RvD3 concentration in mice, Mean ± SEM: 1.30 ± 0.56
  plasma RvD4 concentration in mice, Mean ± SEM: 3.70 ± 0.70
  plasma RvD5 concentration in mice, Mean ± SEM: 1.64 ± 0.67
  plasma RvD5n-3 DPA concentration in mice, Mean ± SEM: 4.02 ± 0.79
  plasma RvD6 concentration in mice, Mean ± SEM: 1.72 ± 0.72
  plasma RvE1 concentration in mice, Mean ± SEM: 0.54 ± 0.25
  plasma RvE2 concentration in mice, Mean ± SEM: 1.70 ± 0.52
  plasma RvE3 concentration in mice, Mean ± SEM: 6.22 ± 1.39
  plasma RvT1 concentration in mice, Mean ± SEM: 10.18 ± 2.01
  plasma RvT2 concentration in mice, Mean ± SEM: 0.00 ± 0.00
  plasma RvT3 concentration in mice, Mean ± SEM: 0.63 ± 0.28
  plasma RvT4 concentration in mice, Mean ± SEM: 1.40 ± 0.64
22 μg/mouse
  plasma 4S,14S-diHDHA concentration in mice, Mean ± SEM: 1.43 ± 0.64
  plasma 5S,15S-diHETE concentration in mice, Mean ± SEM: 12.65 ± 5.37
  plasma 7S,14S-diHDHA concentration in mice, Mean ± SEM: 22.10 ± 8.55
  plasma 7S,14S-diHDPA concentration in mice, Mean ± SEM: 0.64 ± 0.55
  plasma 10S,17S-diHDPA concentration in mice, Mean ± SEM: 0.52 ± 0.45
  plasma 13,14-dehydro-15-oxo-LXA4 concentration in mice, Mean ± SEM: 0.20 ± 0.15
  plasma 14-oxo-MaR1 concentration in mice, Mean ± SEM: 0.81 ± 0.41
  plasma 15-oxo-LXA4 concentration in mice, Mean ± SEM: 3.93 ± 1.01
  plasma 15R-LXA4 concentration in mice, Mean ± SEM: 6.20 ± 1.44
  plasma 15R-LXB4 concentration in mice, Mean ± SEM: 2.17 ± 0.89
  plasma 17R-PD1 concentration in mice, Mean ± SEM: 1.41 ± 0.61
  plasma 17R-RvD1 concentration in mice, Mean ± SEM: 0.26 ± 0.30
  plasma 17R-RvD3 concentration in mice, Mean ± SEM: 0.67 ± 0.65
  plasma 22-OH-MaR1 concentration in mice, Mean ± SEM: 0.00 ± 0.00
  plasma 22-OH-PD1 concentration in mice, Mean ± SEM: 0.00 ± 0.00
  plasma LXA4 concentration in mice, Mean ± SEM: 0.56 ± 0.15
  plasma LXB4 concentration in mice, Mean ± SEM: 12.72 ± 1.68
  plasma MaR1 concentration in mice, Mean ± SEM: 37.97 ± 11.63
  plasma MaR1n-3 DPA concentration in mice, Mean ± SEM: 0.00 ± 0.00
  plasma MaR2 concentration in mice, Mean ± SEM: 1.28 ± 0.72
  plasma PD1 concentration in mice, Mean ± SEM: 9.99 ± 2.47
  plasma PD1n-3 DPA concentration in mice, Mean ± SEM: 0.28 ± 0.24
  plasma PDx concentration in mice, Mean ± SEM: 10.36 ± 2.79
  plasma RvD1 concentration in mice, Mean ± SEM: 0.14 ± 0.12
  plasma RvD1n-3 DPA concentration in mice, Mean ± SEM: 0.33 ± 0.48
  plasma RvD2 concentration in mice, Mean ± SEM: 2.99 ± 0.66
  plasma RvD2n-3 DPA concentration in mice, Mean ± SEM: 3.72 ± 3.41
  plasma RvD3 concentration in mice, Mean ± SEM: 0.18 ± 0.66
  plasma RvD4 concentration in mice, Mean ± SEM: 3.88 ± 0.55
  plasma RvD5 concentration in mice, Mean ± SEM: 0.00 ± 0.00
  plasma RvD5n-3 DPA concentration in mice, Mean ± SEM: 0.00 ± 0.00
  plasma RvD6 concentration in mice, Mean ± SEM: 0.00 ± 0.00
  plasma RvE1 concentration in mice, Mean ± SEM: 0.00 ± 0.00
  plasma RvE2 concentration in mice, Mean ± SEM: 0.96 ± 0.22
  plasma RvE3 concentration in mice, Mean ± SEM: 0.77 ± 0.64
  plasma RvT1 concentration in mice, Mean ± SEM: 9.49 ± 5.15
  plasma RvT2 concentration in mice, Mean ± SEM: 0.00 ± 0.00
  plasma RvT3 concentration in mice, Mean ± SEM: 0.87 ± 0.48
  plasma RvT4 concentration in mice, Mean ± SEM: 2.07 ± 1.16
[1]
  ALOX15-derived SPM including RvT1, RvT4 and RvD5n-3 DPA: upregulation
  peripheral blood SPM profile: dose-dependent shift
